Source: patent US20150315188A1, “COMPOUNDS AND METHODS FOR TREATMENT OF HYPERTENSION” (MEDIVATION TECHNOLOGIES, INC., priority 2012, published 2015)

Experiments:
[1] = molecular target: T1, Human adrenergic α2B receptor (Homo sapiens, UniProt P18089); assay: β-Arrestin GPCR functional assay, adrenergic α2B (Protocol B); assay type: cell-based; conditions: for IC50: β-arrestin, antagonist vs nor-epinephrine EC80, read-out: IC50 Adrenergic α2B; for inhibition at 0.1 µM: 0.1 μM compound
T1 sequence (P18089 1-450): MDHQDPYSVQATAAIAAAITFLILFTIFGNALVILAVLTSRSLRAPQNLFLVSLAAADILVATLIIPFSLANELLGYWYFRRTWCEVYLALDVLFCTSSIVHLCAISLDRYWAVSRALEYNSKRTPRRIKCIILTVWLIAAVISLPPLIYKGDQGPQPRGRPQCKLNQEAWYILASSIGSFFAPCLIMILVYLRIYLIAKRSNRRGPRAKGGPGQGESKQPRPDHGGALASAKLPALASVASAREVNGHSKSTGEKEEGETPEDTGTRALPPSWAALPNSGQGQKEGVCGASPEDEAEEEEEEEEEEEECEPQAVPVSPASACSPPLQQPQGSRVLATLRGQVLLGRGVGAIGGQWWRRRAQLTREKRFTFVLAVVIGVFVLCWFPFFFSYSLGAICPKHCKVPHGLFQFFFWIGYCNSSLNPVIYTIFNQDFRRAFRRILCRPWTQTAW
Method in brief: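 CHO cells overexpressing human α2B (PathHunter β-arrestin), 12,000 per well, 24 h at 37° C; compounds in 1% DMSO 30 min, then 50 nM norepinephrine (EC80) 90 min at 37° C.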

[2] = molecular target: T2, Human adrenergic α2A receptor (Homo sapiens, UniProt P08913); assay: Radioligand binding, adrenergic α2A (Protocol Group B); set-up: purchased Milipore (Millipore); conditions: for Percentage inhibition of ligand binding, Adrenergic α2A (0.1 μM) / inhibition at 0.1 µM: 0.1 μM compound; for Percentage inhibition of ligand binding, Adrenergic α2A (0.1 μM) / Percentage inhibition of ligand binding, Adrenergic α2A (0.3 μM) / Ki / inhibition at 0.1 µM / inhibition at 0.3 µM: Protocol Group B; for Percentage inhibition of ligand binding, Adrenergic α2A (0.3 μM) / inhibition at 0.3 µM: 0.3 μM compound; for Ki: estimated Ki; for inhibition at 0.1 µM: read-out: Percentage inhibition of ligand binding, Adrenergic α2A (0.1 μM); for inhibition at 0.3 µM: read-out: Percentage inhibition of ligand binding, Adrenergic α2A (0.3 μM); for inhibition at 1 µM: 1 μM compound, read-out: Percentage inhibition of ligand binding, Adrenergic α2A, 1 μM; for inhibition at 3.2 µM: 3.2 μM compound, read-out: Percentage inhibition of ligand binding, Adrenergic α2A, 3.2 μM
T2 sequence (P08913 1-465): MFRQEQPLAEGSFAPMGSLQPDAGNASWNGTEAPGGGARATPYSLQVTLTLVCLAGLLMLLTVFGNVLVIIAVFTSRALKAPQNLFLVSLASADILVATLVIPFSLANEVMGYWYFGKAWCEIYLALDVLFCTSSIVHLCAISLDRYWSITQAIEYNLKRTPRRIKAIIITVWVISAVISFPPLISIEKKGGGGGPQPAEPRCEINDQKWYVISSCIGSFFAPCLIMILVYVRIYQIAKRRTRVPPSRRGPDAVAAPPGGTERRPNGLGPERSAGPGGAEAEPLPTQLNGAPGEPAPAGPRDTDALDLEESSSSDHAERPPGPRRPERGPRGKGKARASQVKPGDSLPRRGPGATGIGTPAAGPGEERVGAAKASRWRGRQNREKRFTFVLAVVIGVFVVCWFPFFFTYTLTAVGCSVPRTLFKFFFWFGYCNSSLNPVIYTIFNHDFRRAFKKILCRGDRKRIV
Method in brief: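 Membranes from recombinant cells expressing the receptor, in 50 mM Tris-HCl pH 7.4 with 5 mM MgCl2, 1 mM CaCl2, 0.2% BSA; compounds incubated with 2 nM [^3H]MK-912 for 60 min at 25° C. Nonspecific binding defined by 10 μM rauwolscine; filtration, counting; percent inhibition of specific binding, or estimated Ki.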

[3] = molecular target: T3, Human adrenergic α1B receptor (Homo sapiens, UniProt P35368); assay: Radioligand binding, adrenergic α1B (Protocol Group B); set-up: purchased Milipore (Millipore); conditions: for Percentage inhibition of ligand binding, Adrenergic α1B (0.1 μM) / inhibition at 0.1 µM: 0.1 μM compound; for Percentage inhibition of ligand binding, Adrenergic α1B (0.1 μM) / Percentage inhibition of ligand binding, Adrenergic α1B (0.3 μM) / Ki / inhibition at 0.1 µM / inhibition at 0.3 µM: Protocol Group B; for Percentage inhibition of ligand binding, Adrenergic α1B (0.3 μM) / inhibition at 0.3 µM: 0.3 μM compound; for Ki: estimated Ki; for inhibition at 0.1 µM: read-out: Percentage inhibition of ligand binding, Adrenergic α1B (0.1 μM); for inhibition at 0.3 µM: read-out: Percentage inhibition of ligand binding, Adrenergic α1B (0.3 μM); for inhibition at 0.0032 µM: 3.2 nM compound, read-out: Percentage inhibition of ligand binding, Adrenergic α1B, 3.2 nM; for inhibition at 0.32 µM: 0.32 μM compound, read-out: Percentage inhibition of ligand binding, Adrenergic α1B, 0.32 μM; for inhibition at 1 µM: 1 μM compound, read-out: Percentage inhibition of ligand binding, Adrenergic α1B, 1 μM
T3 sequence (P35368 1-520): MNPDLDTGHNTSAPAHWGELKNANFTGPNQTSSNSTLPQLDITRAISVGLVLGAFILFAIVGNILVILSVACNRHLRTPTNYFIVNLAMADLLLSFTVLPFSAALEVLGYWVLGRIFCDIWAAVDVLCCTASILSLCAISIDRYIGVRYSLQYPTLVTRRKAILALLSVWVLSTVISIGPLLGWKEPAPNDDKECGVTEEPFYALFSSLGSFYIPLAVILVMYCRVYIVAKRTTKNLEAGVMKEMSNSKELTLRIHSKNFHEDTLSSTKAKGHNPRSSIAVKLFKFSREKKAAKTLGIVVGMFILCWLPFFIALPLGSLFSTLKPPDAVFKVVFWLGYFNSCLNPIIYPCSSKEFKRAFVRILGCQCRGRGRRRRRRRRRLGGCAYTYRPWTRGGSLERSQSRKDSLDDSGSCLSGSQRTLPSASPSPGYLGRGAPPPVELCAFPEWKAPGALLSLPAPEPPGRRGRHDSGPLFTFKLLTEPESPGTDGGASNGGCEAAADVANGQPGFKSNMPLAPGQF
Method in brief: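 Recombinant human α1B membranes incubated with test compound and 0.3 nM [3H]prazosin, 60 min at 25 °C, in 50 mM Tris-HCl pH 7.4, 10 mM MgCl2, 1 mM EDTA; nonspecific binding with 10 μM prazosin. Filter-bound radioactivity counted; values are % inhibition of specific binding or estimated Ki.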

[4] = nor-epinephrine at EC80 (50 nM), read-out: Percentage inhibition, Adrenergic α2B
[5] = 10 nM compound, concentration series, 0.01 µM
[6] = 0.032 μM compound, concentration series, 0.032 µM

SMILES | IC50 [1] [nM] | Percentage inhibition of ligand binding, Adrenergic α2A (0.1 μM) [2] [%] | Ki [2] [nM] | Percentage inhibition of ligand binding, Adrenergic α1B (0.1 μM) [3] [%] | Ki [3] [nM] | inhibition at 0.1 µM [2] [%] | inhibition at 0.3 µM [2] [%] | inhibition at 0.1 µM [3] [%] | inhibition at 0.3 µM [3] [%] | also measured
Cc1ccc2c(c1)c1c(n2CC(OCC2CCC2)c2ccncc2)CCN2CCCC12 (single isomer, unassigned) [138b] | 20.6 | 82 | 9.9 | 57 | 14 | – | – | – | – | Percentage inhibition of ligand binding, Adrenergic α2A (0.3 μM) [2]: 84%; Percentage inhibition of ligand binding, Adrenergic α1B (0.3 μM) [3]: 80%
CCCOC(Cn1c2c(c3cc(C)ccc31)CN(C)CC2)c1ccncc1 (single isomer, unassigned) [42a] | 181 | – | 55 | – | 54 | 37 | 63 | 44 | – | Percentage inhibition of ligand binding, Adrenergic α1B (0.3 μM) [3]: 70%
Cc1ccc2c(c1)c1c(n2C[C@@H](OC2CCCC2)c2ccncc2)CCN2CCC[C@H]12 [compound 82, (11cR)-7-[(25)-2-(cyclopentoxy)-2-(4-pyridyl)ethyl]-10-methyl-1,2,3,5,6,11c-hexahydroindolizino[7,8-b]indole] | 25.4 | – | 4.5 | – | 32.7 | 92 | 97 | 56 | 81 | –
OC(Cn1c2c(c3cc(F)ccc31)C1CCCN1CC2)c1ccncc1 (single isomer, unassigned) [18b] | 13 | – | 55.9 | – | 65.8 | 45 | 71 | 45 | 63 | inhibition at 0.01 µM ([1]; 10 nM compound, nor-epinephrine at EC80 (50 nM), read-out: Percentage inhibition, Adrenergic α2B): 37%; inhibition at 0.03 µM ([1]; 30 nM compound, nor-epinephrine at EC80 (50 nM), read-out: Percentage inhibition, Adrenergic α2B): 94%; inhibition at 0.1 µM [1, 4]: 103%; inhibition at 0.0032 µM ([2]; 3.2 nM compound, concentration series, read-out: Percentage inhibition of ligand binding, Adrenergic α2A, 3.2 nM): 8%; inhibition at 0.01 µM ([2]; 10 nM compound, concentration series, read-out: Percentage inhibition of ligand binding, Adrenergic α2A, 10 nM): 12%; inhibition at 0.03 µM ([2]; 0.03 μM compound, concentration series, read-out: Percentage inhibition of ligand binding, Adrenergic α2A, 0.03 μM): 27%; inhibition at 0.32 µM ([2]; 0.32 μM compound, concentration series, read-out: Percentage inhibition of ligand binding, Adrenergic α2A, 0.32 μM): 76%; inhibition at 1 µM ([2]; concentration series): 90%; inhibition at 3.2 µM ([2]; concentration series): 96%; inhibition at 10 µM ([2]; 10 μM compound, concentration series, read-out: Percentage inhibition of ligand binding, Adrenergic α2A, 10 μM): 99%; inhibition at 0.0032 µM ([3]; concentration series): 14%; inhibition at 0.01 µM ([3]; 10 nM compound, concentration series, read-out: Percentage inhibition of ligand binding, Adrenergic α1B, 10 nM): 17%; inhibition at 0.03 µM ([3]; 0.03 μM compound, concentration series, read-out: Percentage inhibition of ligand binding, Adrenergic α1B, 0.03 μM): 14%; inhibition at 0.32 µM ([3]; concentration series): 74%; inhibition at 1 µM ([3]; concentration series): 87%; inhibition at 3.2 µM ([3]; 3.2 μM compound, concentration series, read-out: Percentage inhibition of ligand binding, Adrenergic α1B, 3.2 μM): 96%; inhibition at 10 µM ([3]; 10 μM compound, concentration series, read-out: Percentage inhibition of ligand binding, Adrenergic α1B, 10 μM): 99%
Cc1cc(Cl)c2c(c1)c1c(n2CC(C)(O)c2ccncc2)CCN2CCCC12 (single isomer, unassigned) [91a] | 16.4 | – | 8.8 | – | 20.9 | 81 | 91 | 59 | 81 | –
Cc1ccc2c(c1)c1c(n2CC(C)(O)c2ccnc(F)c2)CCN2CCCC12 (single isomer, unassigned) [48a] | 20 | – | 31.1 | – | 8.15 | 73 | 82 | 85 | 94 | –
Cc1cc(C)c2c(c1)c1c(n2CC(C)(O)c2ccncc2)CCN2CCCC12 (single isomer, unassigned) [19a] | 18 | 72 | 16.2 | 82 | 7.5 | – | 87 | – | 93 | Percentage inhibition, Adrenergic α2B ([1]; 10 nM compound, nor-epinephrine at EC80 (50 nM)): 33%; Percentage inhibition, Adrenergic α2B ([1]; 30 nM compound, nor-epinephrine at EC80 (50 nM)): 71%; inhibition at 0.1 µM [1, 4]: 101%; inhibition at 0.001 µM ([2]; 1 nM compound, concentration series, read-out: Percentage inhibition of ligand binding, Adrenergic α2A, 1 nM): 3%; Percentage inhibition of ligand binding, Adrenergic α2A, 3.2 nM ([2]; 3.2 nM compound, concentration series, 0.0032 µM): 0%; Percentage inhibition of ligand binding, Adrenergic α2A, 10 nM [2, 5]: 22%; Percentage inhibition of ligand binding, Adrenergic α2A, 0.032 μM [2, 6]: 49%; Percentage inhibition of ligand binding, Adrenergic α2A, 0.32 μM ([2]; 0.32 μM compound, concentration series, 0.32 µM): 92%; inhibition at 1 µM ([2]; concentration series): 98%; inhibition at 3.2 µM ([2]; concentration series): 100%; inhibition at 0.00032 µM ([3]; 0.32 nM compound, concentration series, read-out: Percentage inhibition of ligand binding, Adrenergic α1B, 0.32 nM): 13%; inhibition at 0.001 µM ([3]; 1 nM compound, concentration series, read-out: Percentage inhibition of ligand binding, Adrenergic α1B, 1 nM): 2%; inhibition at 0.0032 µM ([3]; concentration series): 7%; Percentage inhibition of ligand binding, Adrenergic α1B, 10 nM [3, 5]: 24%; Percentage inhibition of ligand binding, Adrenergic α1B, 0.032 μM [3, 6]: 61%; inhibition at 0.32 µM ([3]; concentration series): 96%; inhibition at 1 µM ([3]; concentration series): 95%
Cc1ccc2c(c1)c1c(n2CC(O)c2ccncc2)CCN2CCCC12 (single isomer, unassigned) [Compound No. 178d] | – | 96 | – | 99 | – | 90 | – | 94 | – | –
Cc1cc(F)c2c(c1)c1c(n2CC(O)c2ccncc2)CCN2CCCC12 (single isomer, unassigned) [137a] | 41.3 | 56 | 43.6 | – | 15 | – | – | 58 | 85 | Percentage inhibition of ligand binding, Adrenergic α2A (0.3 μM) [2]: 79%
OC(Cn1c2c(c3cc(Cl)cc(F)c31)C1CCCN1CC2)c1ccncc1 (single isomer, unassigned) [135b] | 9.27 | 79 | 3.1 | 64 | – | – | – | – | – | Percentage inhibition of ligand binding, Adrenergic α2A (0.3 μM) [2]: 84%; Percentage inhibition of ligand binding, Adrenergic α1B (0.3 μM) [3]: 81%
Cc1ccc2c(c1)c1c(n2CC(C)(O)c2ccc(F)nc2)CCN2CCCC12 (single isomer, unassigned) [6a] | 24 | – | 55 | – | 25 | – | – | – | – | –
